Assay in all cases: cell-based
In test [1] the target is hNav1.7 (Homo sapiens, UniProt Q15858). The format is cell-based. To be noted: PatchXpress, read-out: PX hNav1.7 Tonic IC50.
Test [2] deals with hNav1.4 (Homo sapiens, UniProt P35499). To be noted: for IC50: PatchXpress, read-out: PX hNav1.4 Tonic IC50.
In test [3] the target is hNav1.5 (Homo sapiens, UniProt Q14524). As to conditions: PatchXpress, read-out: PX hNav1.5 Tonic IC50.
The mark [4] stands for this setting: * = at high concentrations compound would wash off slowly or not at all.

Where two headings read alike, the source gives them in different places.

hNav1.4, sequence (P35499 whole entry): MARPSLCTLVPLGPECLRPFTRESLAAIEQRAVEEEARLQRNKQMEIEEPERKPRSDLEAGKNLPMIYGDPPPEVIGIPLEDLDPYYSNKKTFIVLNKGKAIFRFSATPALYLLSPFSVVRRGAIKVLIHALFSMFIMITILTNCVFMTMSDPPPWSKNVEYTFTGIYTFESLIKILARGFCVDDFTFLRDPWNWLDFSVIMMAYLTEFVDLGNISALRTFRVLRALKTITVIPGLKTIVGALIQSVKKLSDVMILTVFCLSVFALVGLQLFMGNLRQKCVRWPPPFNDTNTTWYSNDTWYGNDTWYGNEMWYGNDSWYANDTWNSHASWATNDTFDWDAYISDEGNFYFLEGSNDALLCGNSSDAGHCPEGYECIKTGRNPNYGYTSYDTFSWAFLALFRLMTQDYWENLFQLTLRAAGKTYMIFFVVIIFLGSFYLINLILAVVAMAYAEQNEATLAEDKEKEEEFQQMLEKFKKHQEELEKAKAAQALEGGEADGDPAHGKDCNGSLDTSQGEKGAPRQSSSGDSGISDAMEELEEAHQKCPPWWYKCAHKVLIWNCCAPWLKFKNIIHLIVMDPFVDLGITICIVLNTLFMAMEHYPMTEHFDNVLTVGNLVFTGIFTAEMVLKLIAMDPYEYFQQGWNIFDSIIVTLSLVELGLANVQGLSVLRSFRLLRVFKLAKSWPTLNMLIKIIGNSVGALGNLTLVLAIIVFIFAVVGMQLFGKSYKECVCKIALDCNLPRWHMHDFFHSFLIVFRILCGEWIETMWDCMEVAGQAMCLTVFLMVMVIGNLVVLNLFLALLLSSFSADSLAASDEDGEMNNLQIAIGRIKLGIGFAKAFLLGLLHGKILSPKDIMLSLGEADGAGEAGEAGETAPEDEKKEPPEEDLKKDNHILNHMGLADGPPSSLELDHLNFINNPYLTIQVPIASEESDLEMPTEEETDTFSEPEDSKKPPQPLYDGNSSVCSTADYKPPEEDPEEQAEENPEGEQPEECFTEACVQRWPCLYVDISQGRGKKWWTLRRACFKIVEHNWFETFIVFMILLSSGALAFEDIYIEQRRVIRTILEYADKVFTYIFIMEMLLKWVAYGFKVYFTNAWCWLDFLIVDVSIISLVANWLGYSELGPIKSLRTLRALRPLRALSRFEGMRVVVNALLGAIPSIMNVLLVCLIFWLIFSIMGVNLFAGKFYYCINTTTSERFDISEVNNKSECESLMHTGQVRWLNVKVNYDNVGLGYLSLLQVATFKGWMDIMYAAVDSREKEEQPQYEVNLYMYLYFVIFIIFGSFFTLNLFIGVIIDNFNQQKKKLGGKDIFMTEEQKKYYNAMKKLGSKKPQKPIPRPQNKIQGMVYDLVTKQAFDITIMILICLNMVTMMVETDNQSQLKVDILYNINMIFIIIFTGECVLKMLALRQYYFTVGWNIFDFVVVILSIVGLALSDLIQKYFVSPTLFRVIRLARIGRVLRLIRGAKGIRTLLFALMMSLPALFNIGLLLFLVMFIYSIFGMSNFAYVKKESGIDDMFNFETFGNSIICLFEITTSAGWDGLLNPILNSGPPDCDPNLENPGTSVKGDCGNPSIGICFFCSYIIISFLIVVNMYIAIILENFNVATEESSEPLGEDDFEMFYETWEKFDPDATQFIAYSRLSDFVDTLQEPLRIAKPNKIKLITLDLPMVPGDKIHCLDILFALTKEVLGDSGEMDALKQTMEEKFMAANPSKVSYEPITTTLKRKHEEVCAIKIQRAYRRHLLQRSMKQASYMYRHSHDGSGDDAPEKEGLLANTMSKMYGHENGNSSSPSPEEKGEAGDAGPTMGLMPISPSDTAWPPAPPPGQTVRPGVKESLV
hNav1.7, sequence (Q15858 whole entry): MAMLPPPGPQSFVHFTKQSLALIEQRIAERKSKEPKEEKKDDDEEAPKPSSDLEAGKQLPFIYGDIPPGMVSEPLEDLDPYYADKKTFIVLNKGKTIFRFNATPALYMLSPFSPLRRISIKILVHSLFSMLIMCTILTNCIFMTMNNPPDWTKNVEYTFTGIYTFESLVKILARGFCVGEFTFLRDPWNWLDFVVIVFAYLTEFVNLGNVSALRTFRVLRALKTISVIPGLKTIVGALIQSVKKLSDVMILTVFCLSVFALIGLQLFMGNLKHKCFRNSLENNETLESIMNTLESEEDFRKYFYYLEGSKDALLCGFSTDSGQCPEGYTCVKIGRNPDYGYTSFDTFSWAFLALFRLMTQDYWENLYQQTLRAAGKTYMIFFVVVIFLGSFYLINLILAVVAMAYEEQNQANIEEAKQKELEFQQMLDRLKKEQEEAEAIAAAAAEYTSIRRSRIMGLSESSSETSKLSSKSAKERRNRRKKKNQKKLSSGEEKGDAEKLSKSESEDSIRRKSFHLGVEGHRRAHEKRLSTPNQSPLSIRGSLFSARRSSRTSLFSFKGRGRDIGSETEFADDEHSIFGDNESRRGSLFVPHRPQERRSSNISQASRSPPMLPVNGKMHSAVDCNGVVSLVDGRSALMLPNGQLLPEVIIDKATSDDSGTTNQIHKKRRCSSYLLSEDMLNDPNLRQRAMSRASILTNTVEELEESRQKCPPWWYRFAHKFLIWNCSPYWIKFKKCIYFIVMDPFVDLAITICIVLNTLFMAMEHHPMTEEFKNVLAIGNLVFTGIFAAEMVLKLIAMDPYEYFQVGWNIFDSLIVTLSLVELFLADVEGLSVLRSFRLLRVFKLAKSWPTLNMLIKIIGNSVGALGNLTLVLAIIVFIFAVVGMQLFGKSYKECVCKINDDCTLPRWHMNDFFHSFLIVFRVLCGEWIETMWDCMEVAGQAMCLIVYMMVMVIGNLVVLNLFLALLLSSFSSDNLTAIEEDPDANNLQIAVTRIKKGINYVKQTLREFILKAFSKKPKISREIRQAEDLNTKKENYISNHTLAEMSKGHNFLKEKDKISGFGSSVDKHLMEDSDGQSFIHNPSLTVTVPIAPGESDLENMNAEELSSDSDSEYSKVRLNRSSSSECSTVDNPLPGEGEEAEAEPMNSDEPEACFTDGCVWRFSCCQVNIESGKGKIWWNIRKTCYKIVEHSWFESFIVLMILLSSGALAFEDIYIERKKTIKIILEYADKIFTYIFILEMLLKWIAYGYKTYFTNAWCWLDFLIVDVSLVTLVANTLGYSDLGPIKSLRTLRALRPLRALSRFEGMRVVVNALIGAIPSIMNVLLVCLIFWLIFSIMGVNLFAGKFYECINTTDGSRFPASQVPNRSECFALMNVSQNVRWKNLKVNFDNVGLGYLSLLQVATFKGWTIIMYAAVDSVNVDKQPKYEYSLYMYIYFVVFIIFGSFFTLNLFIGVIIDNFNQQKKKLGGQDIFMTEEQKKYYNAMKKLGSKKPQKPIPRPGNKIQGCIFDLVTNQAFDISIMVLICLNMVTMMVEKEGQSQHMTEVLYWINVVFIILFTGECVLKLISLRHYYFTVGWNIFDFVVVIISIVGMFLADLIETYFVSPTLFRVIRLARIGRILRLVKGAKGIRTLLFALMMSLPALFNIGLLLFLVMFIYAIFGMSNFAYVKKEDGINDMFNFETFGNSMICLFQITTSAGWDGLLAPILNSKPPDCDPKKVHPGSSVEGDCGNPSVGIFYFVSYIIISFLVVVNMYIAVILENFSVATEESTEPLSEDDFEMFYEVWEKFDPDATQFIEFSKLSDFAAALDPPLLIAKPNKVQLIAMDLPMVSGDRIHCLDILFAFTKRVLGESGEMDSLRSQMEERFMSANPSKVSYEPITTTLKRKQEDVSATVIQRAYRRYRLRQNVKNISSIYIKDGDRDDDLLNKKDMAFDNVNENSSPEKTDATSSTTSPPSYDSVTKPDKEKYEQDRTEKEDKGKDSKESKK

Turning to `C#CC[C@H](N)C(=O)N[C@H]1CSSC[C@@H]2NC(=O)[C@@H]3CSSC[C@@H](C(=O)N[C@@H](CCCNC(=N)N)C(=O)N[C@@H](CCCCN)C(=O)N[C@H](C(=O)N[C@H](C(N)=O)[C@@H](C)CC)[C@@H](C)CC)NC(=O)[C@H](Cc4c[nH]c5ccccc45)NC(=O)[C@H](CC(C)C)NC(=O)[C@H](CCCCN)NC(=O)[C@H](CSSC[C@H](NC(=O)[C@H]([C@@H](C)O)NC(=O)[C@H](Cc4c[nH]c5ccccc45)NC(=O)[C@H](CCCC)NC(=O)[C@H](Cc4c[nH]c5ccccc45)NC(=O)[C@H](CCCCN)NC(=O)[C@H](CCC(N)=O)NC1=O)C(=O)N[C@@H](CC(=O)O)C(=O)N[C@@H](CO)C(=O)N[C@@H](CCCCN)C(=O)N[C@@H](CCCNC(=N)N)C(=O)N[C@@H](C)C(=O)N3)NC(=O)[C@H](CCC(=O)O)NC(=O)[C@H](CC(C)C)NC(=O)CNC(=O)[C@H](CCC(=O)O)NC2=O` [compound 343], the IC50 in test [1] (tonic block) stood at 2.63 nM; in test [2] (tonic block), 790 nM; in test [3] (tonic block), 2660 nM. The Nav1.4/Nav1.7 in test [2] (ratio of PX tonic IC50 values) amounted to 300.

As for `C#CC[C@@H]1NC(=O)[C@H](CC(=O)O)NC(=O)[C@@H]2CSSC[C@@H]3NC(=O)[C@H](CCC(=O)O)NC(=O)[C@H](CC(C)C)NC(=O)CNC(=O)[C@H](CCC(=O)O)NC(=O)[C@H](CSSC[C@H](NC(=O)[C@@H](N)Cc4ccc(O)cc4)C(=O)N[C@@H](CCC(N)=O)C(=O)N[C@@H](CCCCN)C(=O)N[C@@H](Cc4c[nH]c5ccccc45)C(=O)N[C@@H](CCCC)C(=O)N[C@@H](Cc4c[nH]c5ccccc45)C(=O)N[C@@H]([C@@H](C)O)C(=O)N2)NC(=O)[C@H](CSSC[C@@H](C(=O)N[C@@H](CCCNC(=N)N)C(=O)N[C@@H](CCCCN)C(=O)N[C@H](C(=O)N[C@H](C(N)=O)[C@@H](C)CC)[C@@H](C)CC)NC(=O)[C@H](Cc2c[nH]c4ccccc24)NC(=O)[C@H](CC(C)C)NC(=O)[C@H](CCCCN)NC3=O)NC(=O)[C@H](C)NC(=O)[C@H](CCCNC(=N)N)NC(=O)[C@H](CCCCN)NC1=O` [compound 344], the IC50 in test [1] (tonic block) stood at 18.4 nM; in test [2] (tonic block), 4220 nM; in test [3] (tonic block), 3550 nM. Also, in test [2] (ratio of PX tonic IC50 values), the Nav1.4/Nav1.7 came out at 230.

For the compound `C#CC[C@@H]1NC(=O)[C@H](CCCNC(=N)N)NC(=O)[C@H](CCCCN)NC(=O)[C@H](CO)NC(=O)[C@H](CC(=O)O)NC(=O)[C@@H]2CSSC[C@@H]3NC(=O)[C@H](CCC(=O)O)NC(=O)[C@H](CC(C)C)NC(=O)CNC(=O)[C@H](CCC(=O)O)NC(=O)[C@H](CSSC[C@H](NC(=O)[C@@H](N)Cc4ccc(O)cc4)C(=O)N[C@@H](CCC(N)=O)C(=O)N[C@@H](CCCCN)C(=O)N[C@@H](Cc4c[nH]c5ccccc45)C(=O)N[C@@H](CCCC)C(=O)N[C@@H](Cc4c[nH]c5ccccc45)C(=O)N[C@@H]([C@@H](C)O)C(=O)N2)NC(=O)[C@H](CSSC[C@@H](C(=O)N[C@@H](CCCNC(=N)N)C(=O)N[C@@H](CCCCN)C(=O)N[C@H](C(=O)N[C@H](C(N)=O)[C@@H](C)CC)[C@@H](C)CC)NC(=O)[C@H](Cc2c[nH]c4ccccc24)NC(=O)[C@H](CC(C)C)NC(=O)[C@H](CCCCN)NC3=O)NC1=O` [compound 345], the half-maximal inhibitory concentration (IC50) is 7.16 nM in test [1] (tonic block), 1660 nM in test [2] (tonic block) and 4570 nM in test [3] (tonic block).

Turning to `C#CC[C@@H]1NC(=O)[C@@H]2CSSC[C@H](NC(=O)[C@@H](N)Cc3ccc(O)cc3)C(=O)N[C@@H](CCC(N)=O)C(=O)N[C@@H](CCCCN)C(=O)N[C@@H](Cc3c[nH]c4ccccc34)C(=O)N[C@@H](CCCC)C(=O)N[C@@H](Cc3c[nH]c4ccccc34)C(=O)N[C@@H]([C@@H](C)O)C(=O)N[C@H]3CSSC[C@H](NC(=O)[C@H](CCC(=O)O)NC(=O)[C@H](CC(C)C)NC(=O)CNC1=O)C(=O)N[C@@H](CCCCN)C(=O)N[C@@H](CC(C)C)C(=O)N[C@@H](Cc1c[nH]c4ccccc14)C(=O)N[C@H](C(=O)N[C@@H](CCCNC(=N)N)C(=O)N[C@@H](CCCCN)C(=O)N[C@H](C(=O)N[C@H](C(N)=O)[C@@H](C)CC)[C@@H](C)CC)CSSC[C@H](NC(=O)[C@H](C)NC(=O)[C@H](CCCNC(=N)N)NC(=O)[C@H](CCCCN)NC(=O)[C@H](CO)NC(=O)[C@H](CC(=O)O)NC3=O)C(=O)N2` [compound 346], the IC50 is 9.95 nM in test [1] (tonic block), 291 nM in test [2] (tonic block) and 1020 nM in test [3] (tonic block). Also, in test [2] (ratio of PX tonic IC50 values), the Nav1.4/Nav1.7 is listed as 29.

For `CCCC[C@@H]1NC(=O)[C@H](Cc2c[nH]c3ccccc23)NC(=O)[C@H](CCCCN)NC(=O)[C@H](CCC(N)=O)NC(=O)[C@@H](NC(=O)[C@H](Cc2ccc(O)cc2)NC(=O)[C@@H](N)CCCC)CSSC[C@@H]2NC(=O)[C@@H]3CSSC[C@@H](C(=O)N[C@@H](CCCNC(=N)N)C(=O)N[C@@H](CCCCN)C(=O)N[C@H](C(=O)N[C@H](C(N)=O)[C@@H](C)CC)[C@@H](C)CC)NC(=O)[C@H](Cc4c[nH]c5ccccc45)NC(=O)[C@H](CC(C)C)NC(=O)[C@H](CCCCN)NC(=O)[C@H](CSSC[C@H](NC(=O)[C@H]([C@@H](C)O)NC(=O)[C@H](Cc4c[nH]c5ccccc45)NC1=O)C(=O)N[C@@H](CC(=O)O)C(=O)N[C@@H](CO)C(=O)N[C@@H](CCCCN)C(=O)N[C@@H](CCCNC(=N)N)C(=O)N[C@@H](C)C(=O)N3)NC(=O)[C@H](CCCNC(=N)N)NC(=O)[C@H](CC(C)C)NC(=O)CNC(=O)[C@H](CCC(=O)O)NC2=O` [compound 370], the results for the IC50 in test [1] (setting [4]), in test [2] (setting [4]) and in test [3] (setting [4]) were 0.223 nM, 4.6 nM and 830 nM, respectively. Besides, the Nav1.4/Nav1.7 in test [2] (ratio of PX IC50 values) was found to be 21.

For `CCCC[C@@H]1NC(=O)[C@H](Cc2c[nH]c3ccccc23)NC(=O)[C@H](CCCCN)NC(=O)[C@H](CCC(N)=O)NC(=O)[C@@H](NC(=O)[C@H](Cc2ccc(O)cc2)NC(=O)[C@@H](C)N)CSSC[C@@H]2NC(=O)[C@@H]3CSSC[C@@H](C(=O)N[C@@H](CCCNC(=N)N)C(=O)N[C@@H](CCCCN)C(=O)N[C@H](C(=O)N[C@H](C(N)=O)[C@@H](C)CC)[C@@H](C)CC)NC(=O)[C@H](Cc4c[nH]c5ccccc45)NC(=O)[C@H](CC(C)C)NC(=O)[C@H](CCCCN)NC(=O)[C@H](CSSC[C@H](NC(=O)[C@H]([C@@H](C)O)NC(=O)[C@H](Cc4c[nH]c5ccccc45)NC1=O)C(=O)N[C@@H](CC(=O)O)C(=O)N[C@@H](CO)C(=O)N[C@@H](CCCCN)C(=O)N[C@@H](CCCNC(=N)N)C(=O)N[C@@H](C)C(=O)N3)NC(=O)[C@H](CCCNC(=N)N)NC(=O)[C@H](CC(C)C)NC(=O)CNC(=O)[C@H](CCC(=O)O)NC2=O` [compound 372], the concentration for half-maximal inhibition (IC50) was found to be 0.957 nM in test [1] (setting [4]), 5.1 nM in test [2] (setting [4]) and 730 nM in test [3] (setting [4]). The Nav1.4/Nav1.7 in test [2] (ratio of PX IC50 values) is recorded as 5.

On to `CCCC[C@@H]1NC(=O)[C@H](Cc2c[nH]c3ccccc23)NC(=O)[C@H](CCCCN)NC(=O)[C@H](CCC(N)=O)NC(=O)[C@@H](NC(=O)[C@H](Cc2ccc(O)cc2)NC(=O)[C@H](N)Cc2ccccc2)CSSC[C@@H]2NC(=O)[C@@H]3CSSC[C@@H](C(=O)N[C@@H](CCCNC(=N)N)C(=O)N[C@@H](CCCCN)C(=O)N[C@H](C(=O)N[C@H](C(N)=O)[C@@H](C)CC)[C@@H](C)CC)NC(=O)[C@H](Cc4c[nH]c5ccccc45)NC(=O)[C@H](CC(C)C)NC(=O)[C@H](CCCCN)NC(=O)[C@H](CSSC[C@H](NC(=O)[C@H]([C@@H](C)O)NC(=O)[C@H](Cc4c[nH]c5ccccc45)NC1=O)C(=O)N[C@@H](CC(=O)O)C(=O)N[C@@H](CO)C(=O)N[C@@H](CCCCN)C(=O)N[C@@H](CCCNC(=N)N)C(=O)N[C@@H](C)C(=O)N3)NC(=O)[C@H](CCCNC(=N)N)NC(=O)[C@H](CC(C)C)NC(=O)CNC(=O)[C@H](CCC(=O)O)NC2=O` [compound 374], for which the values for the IC50 in test [1] (setting [4]), in test [2] (setting [4]) and in test [3] (setting [4]) were 0.351 nM, 6.8 nM and 620 nM, respectively. Moreover, the Nav1.4/Nav1.7 in test [2] (ratio of PX IC50 values) is given as 19.

In the case of `CCCC[C@@H]1NC(=O)[C@H](Cc2c[nH]c3ccccc23)NC(=O)[C@H](CCCCN)NC(=O)[C@H](CCC(N)=O)NC(=O)[C@@H](NC(=O)[C@H](Cc2ccc(O)cc2)NC(=O)CCN)CSSC[C@@H]2NC(=O)[C@@H]3CSSC[C@@H](C(=O)N[C@@H](CCCNC(=N)N)C(=O)N[C@@H](CCCCN)C(=O)N[C@H](C(=O)N[C@H](C(N)=O)[C@@H](C)CC)[C@@H](C)CC)NC(=O)[C@H](Cc4c[nH]c5ccccc45)NC(=O)[C@H](CC(C)C)NC(=O)[C@H](CCCCN)NC(=O)[C@H](CSSC[C@H](NC(=O)[C@H]([C@@H](C)O)NC(=O)[C@H](Cc4c[nH]c5ccccc45)NC1=O)C(=O)N[C@@H](CC(=O)O)C(=O)N[C@@H](CO)C(=O)N[C@@H](CCCCN)C(=O)N[C@@H](CCCNC(=N)N)C(=O)N[C@@H](C)C(=O)N3)NC(=O)[C@H](CCCNC(=N)N)NC(=O)[C@H](CC(C)C)NC(=O)CNC(=O)[C@H](CCC(=O)O)NC2=O` [compound 376], the IC50 is 0.951 nM in test [1] (setting [4]), 3.2 nM in test [2] (setting [4]) and 700 nM in test [3] (setting [4]). Besides, the Nav1.4/Nav1.7 in test [2] (ratio of PX IC50 values) worked out at 3.

As to `CCCC[C@@H]1NC(=O)[C@H](Cc2c[nH]c3ccccc23)NC(=O)[C@H](CCCCN)NC(=O)[C@H](CCC(N)=O)NC(=O)[C@@H](NC(=O)[C@H](Cc2ccc(O)cc2)NC(=O)[C@@H](N)CCC(C)C)CSSC[C@@H]2NC(=O)[C@@H]3CSSC[C@@H](C(=O)N[C@@H](CCCNC(=N)N)C(=O)N[C@@H](CCCCN)C(=O)N[C@H](C(=O)N[C@H](C(N)=O)[C@@H](C)CC)[C@@H](C)CC)NC(=O)[C@H](Cc4c[nH]c5ccccc45)NC(=O)[C@H](CC(C)C)NC(=O)[C@H](CCCCN)NC(=O)[C@H](CSSC[C@H](NC(=O)[C@H]([C@@H](C)O)NC(=O)[C@H](Cc4c[nH]c5ccccc45)NC1=O)C(=O)N[C@@H](CC(=O)O)C(=O)N[C@@H](CO)C(=O)N[C@@H](CCCCN)C(=O)N[C@@H](CCCNC(=N)N)C(=O)N[C@@H](C)C(=O)N3)NC(=O)[C@H](CCCNC(=N)N)NC(=O)[C@H](CC(C)C)NC(=O)CNC(=O)[C@H](CCC(=O)O)NC2=O` [compound 377], the figures for the IC50 in test [1] (setting [4]), in test [2] (setting [4]) and in test [3] (setting [4]) were 0.676 nM, 8.5 nM and 420 nM, respectively. In test [2] (ratio of PX IC50 values), the Nav1.4/Nav1.7 is 13.

The term IC50 denotes the point on the concentration scale where inhibition reaches its midpoint.
